Laboratory results as given in ChEMBL document CHEMBL1201862, “PubChem BioAssay data set” (2004).
Activity calls are given as the source filed them.

What was measured:
HEK293 = assay: membrane integrity loss in HEK cells – cell-based, fluorescence, cytotoxicity control for IDE activator project, dose response (AID 588440); type: functional; details: Homo sapiens;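 note: cytotoxicity by LDH release measuring loss of membrane integrity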
Insulin-degrading enzyme = target: T1, Insulin-degrading enzyme (Homo sapiens, UniProt P14735); assay: cellular IDE activation of Abeta substrate cleavage – fluorescence polarization, HEK cells, dose response (AID 588439); type: functional, cell-based
T1 sequence (P14735 whole entry): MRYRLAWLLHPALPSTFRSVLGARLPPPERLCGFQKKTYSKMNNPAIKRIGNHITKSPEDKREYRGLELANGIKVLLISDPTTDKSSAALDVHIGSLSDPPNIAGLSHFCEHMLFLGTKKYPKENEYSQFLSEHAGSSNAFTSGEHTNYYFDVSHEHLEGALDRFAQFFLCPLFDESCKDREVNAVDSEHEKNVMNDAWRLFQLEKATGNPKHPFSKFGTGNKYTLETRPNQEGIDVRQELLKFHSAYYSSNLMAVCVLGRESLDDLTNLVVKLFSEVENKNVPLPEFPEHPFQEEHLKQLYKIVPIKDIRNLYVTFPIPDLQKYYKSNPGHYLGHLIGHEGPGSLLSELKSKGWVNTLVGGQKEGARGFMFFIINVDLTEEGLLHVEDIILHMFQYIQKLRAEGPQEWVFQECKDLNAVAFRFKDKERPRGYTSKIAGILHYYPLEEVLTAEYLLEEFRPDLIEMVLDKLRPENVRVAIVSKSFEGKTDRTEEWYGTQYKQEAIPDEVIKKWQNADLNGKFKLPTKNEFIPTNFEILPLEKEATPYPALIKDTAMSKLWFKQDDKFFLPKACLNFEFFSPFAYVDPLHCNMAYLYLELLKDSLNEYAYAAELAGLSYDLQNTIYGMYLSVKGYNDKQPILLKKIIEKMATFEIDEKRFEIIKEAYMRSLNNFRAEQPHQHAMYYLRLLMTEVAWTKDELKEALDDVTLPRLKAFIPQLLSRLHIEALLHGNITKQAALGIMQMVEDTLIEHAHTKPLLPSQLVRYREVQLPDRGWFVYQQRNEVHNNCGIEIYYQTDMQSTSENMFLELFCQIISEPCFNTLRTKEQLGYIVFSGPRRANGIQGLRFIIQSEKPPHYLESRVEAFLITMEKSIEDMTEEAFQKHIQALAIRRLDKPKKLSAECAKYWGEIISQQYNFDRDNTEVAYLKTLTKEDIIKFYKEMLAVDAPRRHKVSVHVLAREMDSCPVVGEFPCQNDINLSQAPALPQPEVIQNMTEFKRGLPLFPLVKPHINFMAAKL

Cytochrome P450 3A4 = Cytochrome P450 3A4 (Homo sapiens, UniProt P08684);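 note: CYP3A4 tested as one member of a cytochrome P450 panel screen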
Cytochrome P450 3A4, sequence (P08684 whole entry): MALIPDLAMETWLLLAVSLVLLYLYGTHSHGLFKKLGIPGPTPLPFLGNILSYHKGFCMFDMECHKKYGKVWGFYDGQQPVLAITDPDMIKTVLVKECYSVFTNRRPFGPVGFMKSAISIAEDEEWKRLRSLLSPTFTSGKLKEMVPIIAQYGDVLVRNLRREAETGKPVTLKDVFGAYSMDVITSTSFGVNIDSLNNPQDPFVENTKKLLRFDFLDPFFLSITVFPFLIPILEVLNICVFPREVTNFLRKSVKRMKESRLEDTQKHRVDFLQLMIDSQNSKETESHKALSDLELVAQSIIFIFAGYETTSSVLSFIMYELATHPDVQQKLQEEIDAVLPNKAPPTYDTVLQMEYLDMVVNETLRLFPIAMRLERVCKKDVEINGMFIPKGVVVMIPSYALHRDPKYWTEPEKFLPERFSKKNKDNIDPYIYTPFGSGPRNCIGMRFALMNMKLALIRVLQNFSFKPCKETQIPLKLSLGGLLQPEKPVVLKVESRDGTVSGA

[1] = Counterscreen for AddAB inhibitors: absorbance-based bacterial cell-based high throughput dose response assay for inhibitors of bacterial viability. [Related pubchem assays (depositor defined):AID435030, AID449728, AID449731, AID488942, AID488955, AID488956]; type: functional
Exodeoxyribonuclease V = Exodeoxyribonuclease V (Escherichia coli (strain K12), UniProt P04993+P07648+P08394); assay: RecBCD inhibition via phage-restricted bacterial growth – absorbance, V66 E. coli, mutant T4 phage, counter-screen for AddAB inhibitor project, dose response (AID 492957); type: functional, cell-based, Escherichia coli str. K-12 substr. MG1655
Exodeoxyribonuclease V, sequence (P04993 whole entry): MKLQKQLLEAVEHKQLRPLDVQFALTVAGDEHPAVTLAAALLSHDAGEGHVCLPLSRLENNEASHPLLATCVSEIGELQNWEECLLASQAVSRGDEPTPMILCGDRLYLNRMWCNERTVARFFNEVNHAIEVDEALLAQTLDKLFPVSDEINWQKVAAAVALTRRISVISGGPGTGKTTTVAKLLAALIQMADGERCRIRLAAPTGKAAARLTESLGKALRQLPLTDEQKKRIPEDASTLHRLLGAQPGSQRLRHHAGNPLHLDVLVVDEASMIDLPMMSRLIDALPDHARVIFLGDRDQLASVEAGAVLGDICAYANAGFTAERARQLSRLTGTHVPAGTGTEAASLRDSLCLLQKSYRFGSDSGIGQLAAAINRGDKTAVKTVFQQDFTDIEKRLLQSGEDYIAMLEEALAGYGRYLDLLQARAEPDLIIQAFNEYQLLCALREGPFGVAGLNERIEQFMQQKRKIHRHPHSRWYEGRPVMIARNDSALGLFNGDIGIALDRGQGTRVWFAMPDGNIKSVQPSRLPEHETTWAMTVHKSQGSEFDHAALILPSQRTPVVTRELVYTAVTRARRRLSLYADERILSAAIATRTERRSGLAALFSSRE
Exodeoxyribonuclease V, sequence (P07648 whole entry): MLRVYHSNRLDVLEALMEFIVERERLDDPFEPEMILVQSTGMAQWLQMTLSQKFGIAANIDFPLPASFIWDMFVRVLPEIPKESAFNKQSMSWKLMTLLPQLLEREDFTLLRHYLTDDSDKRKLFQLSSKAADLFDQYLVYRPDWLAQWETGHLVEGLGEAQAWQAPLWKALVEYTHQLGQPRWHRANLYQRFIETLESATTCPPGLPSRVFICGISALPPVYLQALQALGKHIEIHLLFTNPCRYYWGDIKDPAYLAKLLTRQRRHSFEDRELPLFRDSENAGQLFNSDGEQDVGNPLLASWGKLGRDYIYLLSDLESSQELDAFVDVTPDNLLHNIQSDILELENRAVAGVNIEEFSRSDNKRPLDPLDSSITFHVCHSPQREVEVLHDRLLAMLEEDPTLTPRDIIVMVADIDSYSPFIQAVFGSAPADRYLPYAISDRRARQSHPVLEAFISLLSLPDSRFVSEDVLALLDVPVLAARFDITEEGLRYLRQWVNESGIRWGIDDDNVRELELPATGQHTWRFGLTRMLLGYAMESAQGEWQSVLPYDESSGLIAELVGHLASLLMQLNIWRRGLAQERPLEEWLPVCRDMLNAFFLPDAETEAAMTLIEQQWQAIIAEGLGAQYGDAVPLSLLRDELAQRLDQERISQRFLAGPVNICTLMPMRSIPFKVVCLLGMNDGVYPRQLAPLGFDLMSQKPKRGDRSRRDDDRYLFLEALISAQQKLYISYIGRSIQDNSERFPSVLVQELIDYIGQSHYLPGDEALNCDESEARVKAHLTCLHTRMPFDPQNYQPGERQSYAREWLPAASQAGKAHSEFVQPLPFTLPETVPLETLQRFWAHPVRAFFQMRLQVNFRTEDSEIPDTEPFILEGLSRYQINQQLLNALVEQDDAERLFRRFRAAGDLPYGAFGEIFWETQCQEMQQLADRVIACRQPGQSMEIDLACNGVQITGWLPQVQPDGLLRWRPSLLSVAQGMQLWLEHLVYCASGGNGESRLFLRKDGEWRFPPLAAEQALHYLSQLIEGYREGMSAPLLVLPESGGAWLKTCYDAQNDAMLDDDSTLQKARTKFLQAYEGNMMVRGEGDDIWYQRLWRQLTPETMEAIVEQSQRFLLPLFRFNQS
Exodeoxyribonuclease V, sequence (P08394 whole entry): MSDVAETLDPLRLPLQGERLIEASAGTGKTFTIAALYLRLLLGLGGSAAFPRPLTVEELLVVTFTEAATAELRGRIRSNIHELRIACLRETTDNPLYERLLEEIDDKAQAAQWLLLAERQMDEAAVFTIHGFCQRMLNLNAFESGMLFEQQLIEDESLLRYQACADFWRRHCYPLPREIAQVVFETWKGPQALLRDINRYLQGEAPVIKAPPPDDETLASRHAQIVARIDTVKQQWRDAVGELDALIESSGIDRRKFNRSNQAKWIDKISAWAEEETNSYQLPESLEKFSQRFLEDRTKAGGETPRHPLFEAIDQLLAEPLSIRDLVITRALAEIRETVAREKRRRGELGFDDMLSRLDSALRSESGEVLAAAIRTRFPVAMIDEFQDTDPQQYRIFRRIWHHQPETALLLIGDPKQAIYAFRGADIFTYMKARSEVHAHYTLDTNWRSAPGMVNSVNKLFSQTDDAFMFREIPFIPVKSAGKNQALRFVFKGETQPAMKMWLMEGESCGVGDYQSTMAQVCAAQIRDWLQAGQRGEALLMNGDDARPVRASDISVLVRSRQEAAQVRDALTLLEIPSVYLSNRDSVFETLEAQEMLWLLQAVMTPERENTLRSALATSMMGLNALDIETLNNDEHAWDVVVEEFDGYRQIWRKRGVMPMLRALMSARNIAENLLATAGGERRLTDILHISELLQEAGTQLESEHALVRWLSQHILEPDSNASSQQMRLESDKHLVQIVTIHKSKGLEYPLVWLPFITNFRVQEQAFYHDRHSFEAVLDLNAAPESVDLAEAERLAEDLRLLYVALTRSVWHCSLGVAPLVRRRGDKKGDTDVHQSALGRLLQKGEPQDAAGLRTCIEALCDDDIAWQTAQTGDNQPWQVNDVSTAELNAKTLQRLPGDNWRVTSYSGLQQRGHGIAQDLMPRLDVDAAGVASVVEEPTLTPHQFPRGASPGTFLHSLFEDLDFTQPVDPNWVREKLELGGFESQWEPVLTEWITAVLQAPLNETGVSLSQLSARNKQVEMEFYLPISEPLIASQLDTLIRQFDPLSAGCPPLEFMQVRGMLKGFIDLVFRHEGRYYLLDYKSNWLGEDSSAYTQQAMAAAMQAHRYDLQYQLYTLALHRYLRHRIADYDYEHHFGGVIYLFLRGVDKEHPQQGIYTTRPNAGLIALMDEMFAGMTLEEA

INS1 = assay: INS-1E survival protection against cytokine death – cell-based, luminescence, retest, dose response (AID 449756); type: functional; details: Rattus norvegicus;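 note: cell death triggered by IL-1 beta plus TNF-alpha plus IFN-gamma mixture; protective hits raise ATP signal compared with cytokine alone wells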
[2] = target: ATP-dependent molecular chaperone HSP82 (Candida albicans (strain WO-1) (Yeast), UniProt C4YTQ8); assay: steroid-induced GRE reporter decrease in yeast – S. cerevisiae, luminescence, Hsp90 inhibitor project, dose response (AID 2400); type: functional, cell-based;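 note: beta-galactosidase luminescence from glucocorticoid response element reporter as proxy for Hsp90 function; inhibitor potency where signal loss means Hsp90 inhibition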
ATP-dependent molecular chaperone HSP82, sequence (C4YTQ8 whole entry): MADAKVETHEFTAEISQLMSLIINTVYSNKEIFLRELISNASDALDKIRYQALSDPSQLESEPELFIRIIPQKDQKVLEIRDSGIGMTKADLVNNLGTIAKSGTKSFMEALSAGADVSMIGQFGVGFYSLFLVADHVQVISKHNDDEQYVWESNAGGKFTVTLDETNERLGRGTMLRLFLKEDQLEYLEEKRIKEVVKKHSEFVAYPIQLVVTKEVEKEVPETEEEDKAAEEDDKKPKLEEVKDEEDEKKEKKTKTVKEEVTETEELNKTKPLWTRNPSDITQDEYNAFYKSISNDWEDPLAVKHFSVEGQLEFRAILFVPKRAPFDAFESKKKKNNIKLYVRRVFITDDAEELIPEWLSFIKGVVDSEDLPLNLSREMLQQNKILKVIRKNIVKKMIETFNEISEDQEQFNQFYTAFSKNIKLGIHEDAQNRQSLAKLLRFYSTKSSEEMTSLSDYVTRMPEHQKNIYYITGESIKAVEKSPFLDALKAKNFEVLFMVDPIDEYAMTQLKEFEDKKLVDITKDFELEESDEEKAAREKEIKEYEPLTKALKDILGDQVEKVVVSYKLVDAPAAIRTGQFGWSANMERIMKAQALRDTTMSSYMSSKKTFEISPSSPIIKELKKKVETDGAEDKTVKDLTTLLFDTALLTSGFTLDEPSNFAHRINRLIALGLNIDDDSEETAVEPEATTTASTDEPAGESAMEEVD

[3] = HEK-293T viability loss after treatment – luminescence, T-cell screen hits, cytotoxicity control for TCR NF-kB inhibitor project, dose response (AID 489026); type: functional, cell-based;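 note: cells exposed to compound about 14 hours before the viability readout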
[4] = target: T2, Serine/threonine-protein phosphatase (Candida dubliniensis (strain CD36 / CBS 7987 / NCPF 3949 / NRRLY-17841) (Yeast), UniProt B9W6M3); assay: blockers of CaCl2-induced CDRE-lacZ signaling – S. cerevisiae, luminescence, secondary, dose response (AID 2388); type: functional, cell-based;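 note: yeast reporter cells carrying a calcineurin-responsive lacZ construct stimulated with calcium chloride; luminescent beta-galactosidase reporter signal in whole cells rather than isolated phosphatase activity; potency for inhibition where a drop in reporter signal means calcineurin blockade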
T2 sequence (B9W6M3 whole entry): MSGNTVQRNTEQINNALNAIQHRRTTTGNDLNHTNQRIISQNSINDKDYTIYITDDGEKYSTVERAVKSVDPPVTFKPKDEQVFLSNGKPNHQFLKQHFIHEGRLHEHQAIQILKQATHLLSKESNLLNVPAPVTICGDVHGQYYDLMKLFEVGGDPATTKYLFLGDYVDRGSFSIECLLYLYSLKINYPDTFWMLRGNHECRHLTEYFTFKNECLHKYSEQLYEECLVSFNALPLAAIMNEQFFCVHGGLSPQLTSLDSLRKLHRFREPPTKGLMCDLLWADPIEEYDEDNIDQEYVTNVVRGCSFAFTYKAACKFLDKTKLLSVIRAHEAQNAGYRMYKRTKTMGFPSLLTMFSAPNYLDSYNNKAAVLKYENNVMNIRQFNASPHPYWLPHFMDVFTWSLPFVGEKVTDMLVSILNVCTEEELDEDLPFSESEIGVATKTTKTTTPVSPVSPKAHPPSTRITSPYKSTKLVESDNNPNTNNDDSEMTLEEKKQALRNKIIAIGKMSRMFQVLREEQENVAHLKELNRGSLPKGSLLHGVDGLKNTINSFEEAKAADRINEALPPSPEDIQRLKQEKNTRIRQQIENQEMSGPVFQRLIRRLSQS

cells = type: functional, cell-based
Streptokinase A = target: T3, Streptokinase A (Streptococcus pyogenes serotype M1, UniProt P10520); assay: viability-normalized secreted streptokinase activity reduction – plasminogen activation absorbance, OD405, dose response (AID 1914); type: functional, Streptococcus pyogenes M1 GAS;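 note: secreted streptokinase activity via plasminogen activation per viability signal from cell pellet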
T3 sequence (P10520 whole entry): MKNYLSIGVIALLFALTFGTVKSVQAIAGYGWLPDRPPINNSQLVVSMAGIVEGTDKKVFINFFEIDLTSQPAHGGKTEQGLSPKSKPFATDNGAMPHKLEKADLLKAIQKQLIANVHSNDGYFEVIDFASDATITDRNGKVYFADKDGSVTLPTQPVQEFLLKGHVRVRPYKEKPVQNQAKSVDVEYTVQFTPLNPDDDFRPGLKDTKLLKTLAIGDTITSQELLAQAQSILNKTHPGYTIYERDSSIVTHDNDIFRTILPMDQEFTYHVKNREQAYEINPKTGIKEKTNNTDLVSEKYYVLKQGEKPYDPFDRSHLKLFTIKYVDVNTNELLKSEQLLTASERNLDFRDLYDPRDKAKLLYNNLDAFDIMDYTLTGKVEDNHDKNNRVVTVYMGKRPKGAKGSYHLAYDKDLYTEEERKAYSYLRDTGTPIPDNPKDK

Phospholipase A2 = Phospholipase A2 (Homo sapiens, UniProt P04054); assay: phospholipase A2 activity inhibition – biochemical, set 2, counter-screen for ATG4B inhibitor project, dose response (AID 588586); type: functional
Phospholipase A2, sequence (P04054 whole entry): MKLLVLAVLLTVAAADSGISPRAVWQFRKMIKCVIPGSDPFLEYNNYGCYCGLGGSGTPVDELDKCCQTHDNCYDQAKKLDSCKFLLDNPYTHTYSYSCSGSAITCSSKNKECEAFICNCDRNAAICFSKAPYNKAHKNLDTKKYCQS

[5] = NIH3T3 cell viability loss – ATP luminescence, mouse fibroblasts, counter-screen, dose response (AID 2010); type: functional, cell-based;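 note: cells exposed to compound for about 90 hours before reading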
[6] = general mammalian cell viability loss – inhibitor set, cherry-pick, set 2, cytotoxicity control for miR-122 modulator project, dose response (AID 720697); type: functional, cell-based

With `O=C1CCN2C=Nc3cccc4ccc1c2c34` the IC50 (HEK293) was > 89.2 µM (inactive) and the EC50 (Insulin-degrading enzyme) was > 54.7 µM (inactive).
In the case of `CC(C)C(C(=O)O)N1C(=O)/C(=C/C=C/c2ccco2)SC1=S` (centres undefined), the AC50 (Cytochrome P450 3A4) is reported as 31.6 µM (inconclusive).
For `Oc1ccc2ccccc2c1/C=N/Nc1nnc(-c2ncc[nH]2)c2ccccc12`, the IC50 [1] was > 119 µM (inactive), the IC50 (Exodeoxyribonuclease V) was > 119 µM (inactive) and the AC50 (INS1) was 0.424 µM (active). For the same compound, the EC50 [2] was 3.23 µM (active), the IC50 [3] was > 80 µM (inactive) and the EC50 [4] was > 180 µM (inactive). The EC50 (cells) was 82.8 µM (active), the EC50 (Streptokinase A) was 5.52 µM (active) and the IC50 (Phospholipase A2) was 2.47 µM (active). For the same compound, the EC50 [5] was < 6 µM (inconclusive) and the AC50 [6] was 2.19 µM (active).
